The record followed here is patent US20260174778A1, “SULFONAMIDE COMPOUND, AND PREPARATION METHOD THEREFOR AND USE THEREOF” (SHANGHAI HENLIUS BIOTECH, INC., priority 2023, published 2026).

In one data set the target is T1, KAT7 (Homo sapiens, UniProt O95251).
T1 construct: purchased ACTIVE MOTIF 31889
Description: Inhibition of human KAT enzymes, radioisotope method: KAT7. The data set is classed as biochemical. Particulars: for Ki: KAT7 (full-length), radioisotope method; for KAT7/ KAT6A / KAT7/ KAT6B: selectivity, ratio of Ki. The source says:
(§1) Test Example 2: Selective Inhibitory Effects of Test Compounds on Human KAT6 Enzymes (Radioisotope Method)
(§2) • 1. KAT6A (ACTIVE MOTIF, Cat. No. 81223) • 2. KAT5 (BPS, Cat. No. 79422) • 3. KAT7 (ACTIVE MOTIF, Cat. No. 31889) • 4. KAT6B (ACTIVE MOTIF, Cat. No. 81224) • 5. Acetyl coenzyme A, [Acetyl-^3H, 250 μCi (9.25 MBq](PEIRKIN4 ELMER, Cat. No. NET290250UC) • 6. Acetyl coenzyme A (CAYMVAN, Cat. No. 16160) • 7. 384-well Flashplate (Perkin Elmer, Cat. No. SMP410A001PK) • 8. Garcinol (MCE, Cat. No. HY-107569) • 9. Automatic microplate pipetting system (Precision, PRC384U, BioTek) • 10. Ultrasonic nanoliter liquid handling system (Echo 650 Liquid Handler, Echo 650, Labcyte) • 11. Centrifuge (Avanti J-15R, Beckman Coulter) • 12. Liquid scintillation counter (Microplate Counter, Microbeta2, Perkin Elmer)
(§3) • 1. For KAT6A and KAT7, a 1× assay buffer was prepared as follows: 10 mM Tris-HCl pH 8.0, 0.01% Tween-20, and 1 mM DTT; for KAT6B and KAT5, a 1× assay buffer was prepared as follows: 50 mM Tris-HCl pH 8.0, 0.05% Tween-20, and 1 mM DTT. • 2. Compound preparation: For KAT6A, KAT6B, and KAT7, the final concentration of the compounds started at 1 μM, followed by a 5-fold serial dilution across a total of 7 concentration gradients; for KAT5, the final concentration of the compounds started at 10 μM, followed by a 5-fold serial dilution across a total of 7 concentration gradients. • 3. Substrate reaction solution preparation: The mixed substrates of H4 peptide and [3H]acetyl coenzyme A at final concentrations were prepared using the respective 1× assay buffers, as shown in Table 4.
(§4) • 1. The enzyme solution was transferred to 384-well reaction plates at 10 μL/well. For each negative control well, 10 μL of the 1× assay buffer was transferred. The plates were then centrifuged at 1000 RPM for 1 min and incubated at room temperature for 15 min. • 2. The substrate reaction solution was added at 10 μL/well, and the plates were centrifuged at 1000 RPM for 1 min to start the reaction. • 3. The samples for KAT6A, KAT6B, KAT7, KAT8, and KAT5 were then incubated at room temperature for 60 min, 120 min, 45 min, 60 min, and 120 min, respectively. • 4. Stop solution preparation: A stop solution was prepared by diluting 50 µM cold Ac-CoA in 1× buffer. • 5. The stop solution was added at 10 μL/well, and the plates were centrifuged at […] for 1 min to stop the reaction. • 6. The mixtures in the reaction plates were transferred at 25 μL/well to new plates (Streptavidin FlashPlate HTS PLUS, High Capacity, 384-well). • 7. The plates were incubated at room temperature for at least 60 min and then • 8. read using MicroBeta2.
(§5) Raw data were obtained in EXCEL, and the inhibition rates were calculated:
(§6) [formula] [formula] • Max signal: reaction signal from enzyme and substrate; • Sample signal: signal from sample; • Min signal: signal from substrate only (negative control).
(§7) The inhibition rate data were imported into XLFit Excel, and IC50 values were obtained using formula (2):
(§8) [formula] [formula] • Top: value of the top plateau of the fitted regression curve; • Bottom: value of the bottom plateau of the fitted regression curve; • HillSlope: slope of the fitted regression curve.
(§9) The IC50 value was substituted into formula (3) to obtain the enzymatic activity inhibition constant Ki:
(§10) [formula] • [S]: substrate concentration; Km: Michaelis constant.

A further data set has as its target T2, KAT6B (Homo sapiens, UniProt Q8WYB5).
T2 construct: purchased ACTIVE MOTIF 81224
The data set is described as follows: Inhibition of human KAT enzymes, radioisotope method: KAT6B. To be noted: KAT6B (718-1008). The class given is biochemical.
Excerpt: as §1, §2, §3, §4, §5, §6, §7, §8, §9, §10

A further data set concerns the target T3, KAT6A (Homo sapiens, UniProt Q92794).
T3 construct: purchased ACTIVE MOTIF 81223
Description: Inhibition of human KAT enzymes, radioisotope method: KAT6A. The data set is classed as biochemical. To be noted: KAT6A (488-778).
Excerpt: as §1, §2, §3, §4, §5, §6, §7, §8, §9, §10

A further data set deals with T4, KAT5 (Homo sapiens, UniProt Q92993).
T4 construct: purchased BPS 79422
T4 sequence (Q92993 whole entry): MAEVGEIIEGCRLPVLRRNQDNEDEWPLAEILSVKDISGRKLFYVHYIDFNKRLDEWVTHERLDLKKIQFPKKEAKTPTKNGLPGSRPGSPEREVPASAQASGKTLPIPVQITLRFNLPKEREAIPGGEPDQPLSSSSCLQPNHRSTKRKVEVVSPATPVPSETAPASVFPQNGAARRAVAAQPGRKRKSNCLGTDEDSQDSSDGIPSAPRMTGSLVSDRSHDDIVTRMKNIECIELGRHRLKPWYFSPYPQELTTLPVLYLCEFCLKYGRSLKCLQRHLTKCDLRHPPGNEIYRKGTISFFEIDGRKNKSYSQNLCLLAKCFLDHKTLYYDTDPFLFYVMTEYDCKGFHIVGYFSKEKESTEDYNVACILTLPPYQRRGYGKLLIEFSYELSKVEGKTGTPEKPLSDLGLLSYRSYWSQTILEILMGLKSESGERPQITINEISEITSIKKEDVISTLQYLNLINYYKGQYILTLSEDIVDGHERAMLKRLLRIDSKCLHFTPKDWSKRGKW
The data set is described as follows: Inhibition of human KAT enzymes, radioisotope method: KAT5. The class given is biochemical. Particulars: for Ki: KAT5 (full-length), radioisotope method; for KAT5/ KAT6A / KAT5/ KAT6B: selectivity, ratio of Ki.
Excerpt: as §1, §2, §3, §4, §5, §6, §7, §8, §9, §10

A short description of data set [1]: Pharmacokinetics in SD (Sprague Dawley) rats. Particulars: rat, plasma, female SD rats; for clearance: read-out: CL (clearance rate); for half-life: read-out: T1/2 (half-life) (converted); for Vd: read-out: Vdss (apparent volume of distribution); for bioavailability: read-out: F (bioavailability). The data set is classed as in vivo. On the procedure: Test Example 3: Determination of Pharmacokinetic Data of Compounds in SD (Sprague Dawley) Rats
The pharmacokinetic characteristics of some of the compounds of the present disclosure were evaluated by a pharmacokinetic experiment in SD rats.
Female SD rats aged 6-8 weeks from Shanghai Jihui Laboratory Animal Care Co., Ltd. were selected. The test animals were fasted overnight before administration, and feeding was resumed 4 h after administration. The compounds were dissolved in 5% DMSO+5% Tween 80+90% normal saline. For a single intravenous administration, the administration dose was 1 mg/kg, and the administration volume was 2 mL/kg. For a single intragastric administration, the administration dose was 2 mg/kg, and the administration volume was 10 mL/kg. Blood was collected at 0.083 h (for intravenous administration only), 0.25 h, 0.5 h, 1 h, 2 h, 4 h, 8 h, and 24 h after administration. At each indicated time point, about 150 μL of blood sample was collected from each rat via the vein and placed into an EDTA-K2 tube. Each sample was centrifuged (2000 g, 4° C., 5 min) within 15 min after sample collection to obtain plasma, which was then stored at −70° C. until analysis. The concentration of the corresponding test compound in the SD rat plasma was determined using UPLC-MS/MS.

Read-outs that look alike come from different tables or passages of the source.

T1 sequence (O95251 whole entry): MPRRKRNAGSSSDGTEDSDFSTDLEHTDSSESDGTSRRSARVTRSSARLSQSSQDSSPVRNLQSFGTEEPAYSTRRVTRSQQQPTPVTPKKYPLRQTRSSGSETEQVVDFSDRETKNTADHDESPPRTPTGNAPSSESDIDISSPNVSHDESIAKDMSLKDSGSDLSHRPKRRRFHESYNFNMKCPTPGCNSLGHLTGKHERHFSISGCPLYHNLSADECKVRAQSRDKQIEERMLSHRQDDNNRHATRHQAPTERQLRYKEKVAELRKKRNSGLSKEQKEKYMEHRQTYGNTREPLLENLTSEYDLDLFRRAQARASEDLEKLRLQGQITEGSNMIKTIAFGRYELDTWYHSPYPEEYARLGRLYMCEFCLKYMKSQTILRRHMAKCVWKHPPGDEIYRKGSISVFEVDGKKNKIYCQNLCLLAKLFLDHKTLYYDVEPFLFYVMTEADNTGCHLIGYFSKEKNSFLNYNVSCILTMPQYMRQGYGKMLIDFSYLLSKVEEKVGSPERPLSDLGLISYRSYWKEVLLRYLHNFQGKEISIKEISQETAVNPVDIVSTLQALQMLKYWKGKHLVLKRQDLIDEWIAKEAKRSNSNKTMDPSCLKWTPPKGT
T2 sequence (Q8WYB5 whole entry): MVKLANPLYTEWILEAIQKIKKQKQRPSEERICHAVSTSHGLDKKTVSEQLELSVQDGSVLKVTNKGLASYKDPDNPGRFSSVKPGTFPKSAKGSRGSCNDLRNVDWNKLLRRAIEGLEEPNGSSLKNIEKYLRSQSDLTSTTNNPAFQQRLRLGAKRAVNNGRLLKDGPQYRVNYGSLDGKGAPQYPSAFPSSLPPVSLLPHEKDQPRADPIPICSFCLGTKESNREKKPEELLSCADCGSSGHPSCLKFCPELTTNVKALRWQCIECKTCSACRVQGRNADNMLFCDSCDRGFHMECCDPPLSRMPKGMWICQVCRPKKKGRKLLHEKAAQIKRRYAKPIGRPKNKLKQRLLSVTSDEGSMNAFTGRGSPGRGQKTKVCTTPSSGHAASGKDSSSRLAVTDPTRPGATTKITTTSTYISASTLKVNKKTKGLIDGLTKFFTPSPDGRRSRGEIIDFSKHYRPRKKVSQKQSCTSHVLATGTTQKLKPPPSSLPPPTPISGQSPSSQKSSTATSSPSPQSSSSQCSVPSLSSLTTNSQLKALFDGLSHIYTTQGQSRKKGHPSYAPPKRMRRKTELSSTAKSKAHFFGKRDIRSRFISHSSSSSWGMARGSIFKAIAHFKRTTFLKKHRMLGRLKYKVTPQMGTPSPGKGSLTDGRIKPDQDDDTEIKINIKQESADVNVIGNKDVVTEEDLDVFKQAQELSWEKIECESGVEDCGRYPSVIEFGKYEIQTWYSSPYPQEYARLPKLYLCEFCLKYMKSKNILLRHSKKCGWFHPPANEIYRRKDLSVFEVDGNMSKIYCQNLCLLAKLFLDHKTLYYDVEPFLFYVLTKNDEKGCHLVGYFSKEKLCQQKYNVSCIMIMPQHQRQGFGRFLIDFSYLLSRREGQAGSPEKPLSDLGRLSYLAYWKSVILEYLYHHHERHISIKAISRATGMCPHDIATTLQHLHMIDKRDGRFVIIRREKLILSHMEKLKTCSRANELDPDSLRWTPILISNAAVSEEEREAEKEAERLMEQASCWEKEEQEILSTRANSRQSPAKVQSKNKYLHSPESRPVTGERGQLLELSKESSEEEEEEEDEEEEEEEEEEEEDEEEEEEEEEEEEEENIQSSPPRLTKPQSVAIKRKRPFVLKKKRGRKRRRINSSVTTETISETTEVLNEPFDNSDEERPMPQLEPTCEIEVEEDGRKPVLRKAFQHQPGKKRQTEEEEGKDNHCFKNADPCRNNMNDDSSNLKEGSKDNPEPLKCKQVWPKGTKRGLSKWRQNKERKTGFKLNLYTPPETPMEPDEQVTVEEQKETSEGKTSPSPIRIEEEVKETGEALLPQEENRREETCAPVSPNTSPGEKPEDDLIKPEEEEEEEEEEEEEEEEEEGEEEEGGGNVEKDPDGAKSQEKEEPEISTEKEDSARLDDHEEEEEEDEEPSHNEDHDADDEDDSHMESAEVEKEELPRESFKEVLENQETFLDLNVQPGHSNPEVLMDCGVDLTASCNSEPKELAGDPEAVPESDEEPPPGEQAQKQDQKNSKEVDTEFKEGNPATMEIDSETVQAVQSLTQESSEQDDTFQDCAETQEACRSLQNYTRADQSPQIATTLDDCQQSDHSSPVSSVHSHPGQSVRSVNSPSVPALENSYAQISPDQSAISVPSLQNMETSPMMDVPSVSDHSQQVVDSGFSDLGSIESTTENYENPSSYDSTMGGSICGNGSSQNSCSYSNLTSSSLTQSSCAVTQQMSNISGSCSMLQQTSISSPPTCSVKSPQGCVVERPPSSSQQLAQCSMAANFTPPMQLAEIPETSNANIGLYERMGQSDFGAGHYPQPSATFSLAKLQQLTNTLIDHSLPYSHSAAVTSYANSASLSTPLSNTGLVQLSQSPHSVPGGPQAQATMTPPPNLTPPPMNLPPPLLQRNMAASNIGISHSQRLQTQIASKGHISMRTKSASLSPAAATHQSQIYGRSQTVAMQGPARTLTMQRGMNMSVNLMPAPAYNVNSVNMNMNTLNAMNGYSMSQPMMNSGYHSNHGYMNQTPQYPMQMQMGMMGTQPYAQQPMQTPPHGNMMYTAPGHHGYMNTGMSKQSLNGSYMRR

The Ki is the dissociation constant of the complex between target and ligand, obtained from inhibition or displacement. The low end stands for higher affinity, the high end for lower affinity. The term AUC(0-inf) denotes total exposure, with the tail of the curve extrapolated. Higher therefore signals more exposure. As usually defined, the clearance is the rate of elimination divided by the concentration. In general, bioavailability refers to dose-corrected exposure relative to a reference, in per cent. On to `COc1ccc2c(c1S(=O)(=O)Nc1noc3cc(Cn4cccn4)c(F)c(OC)c13)OCCO2` [Compound 28, N-(6-((1H-Pyrazol-1-yl)methyl)-5-fluoro-4-methoxybenzo[d]isoxazol-3-yl)-6-methoxy-2,3-dihydrobenzo[b][1,4]dioxine-5-sulfonamide], for which, at KAT7, the affinity, expressed as Ki, was 40.6 nM; the “KAT7/ KAT6A” value is listed as 203; the “KAT7/ KAT6B” value was determined as 45. This compound also came in with a Ki on KAT6B of 0.9 nM. Also, the Ki at KAT6A was determined as 0.2 nM. Also, at KAT5, the Ki stood at 649 nM, the “KAT5/ KAT6A” value is on record as 3243 and the “KAT5/ KAT6B” value is recorded as 721. Besides, in data set [1] (iv, i.v. 1 mg/kg), the AUC(0-inf) worked out at 22600 ng·h/mL, the clearance is 0.761 mL/min/kg, the half-life is 5.87 h and the Vd amounted to 0.295 L/kg. Further, in data set [1] (po, p.o. 2 mg/kg), the AUC(0-inf) turned out to be 42800 ng·h/mL, the bioavailability came out at 94.7% and the half-life is 6.73 h.
Take `COc1ccc2c(c1S(=O)(=O)Nc1noc3cc(Cn4cccn4)c(F)c(OC)c13)OCCC2=O` [Compound 42, N-(6-((1H-Pyrazol-1-yl)methyl)-5-fluoro-4-methoxybenzo[d]isoxazol-3-yl)-7-methoxy-4-oxochromane-8-sulfonamide]: in data set [1] (iv, i.v. 1 mg/kg), the AUC(0-inf) turned out to be 10200 ng·h/mL, the clearance is 1.69 mL/min/kg, the half-life was 3.79 h and the Vd was found to be 0.261 L/kg. For the same compound, in data set [1] (po, p.o. 2 mg/kg), the total exposure AUC(0-inf) was 11300 ng·h/mL, the bioavailability turned out to be 55% and the half-life is 3.31 h.
Consider `COc1ccc2c(c1S(=O)(=O)Nc1noc3cc(Cn4cccn4)c(F)c(OC)c13)OCC=C2` [Compound 101, N-(6-((1H-Pyrazol-1-yl)methyl)-5-fluoro-4-methoxybenzo[d]isoxazol-3-yl)-7-methoxy-2H-chromene-8-sulfonamide], for which, on KAT7, the Ki was found to be 7.39 nM, the “KAT7/ KAT6A” value amounted to 35 and the “KAT7/ KAT6B” value stood at 11. The Ki at KAT6B amounted to 0.65 nM. For the same compound, the affinity at KAT6A corresponds to a Ki of 0.21 nM. Moreover, on KAT5, affinity was put at a Ki of 79.6 nM, the “KAT5/ KAT6A” value was 379 and the “KAT5/ KAT6B” value came out at 122. In addition, in data set [1] (iv, i.v. 1 mg/kg), the AUC(0-inf) was 48100 ng·h/mL, the clearance was 0.35 mL/min/kg, the half-life is 8.88 h and the Vd was 0.237 L/kg. Further, in data set [1] (po, p.o. 2 mg/kg), the AUC(0-inf) was found to be 89100 ng·h/mL, the bioavailability stood at 92.5% and the half-life is 9.21 h.
